How the values were obtained:
Experiment in all cases: relative viability (nuclei count vs DMSO), 5 days (fraction); higher = more cells survive
Crenolanib + Decitabine = compound: CC1(COc2ccc3c(c2)ncn3-c2ccc3cccc(N4CCC(N)CC4)c3n2)COC1 [Crenolanib] + Nc1ncn([C@H]2C[C@H](O)[C@@H](CO)O2)c(=O)n1 [Decitabine] (partner 2 µM)
Summary of the method: (§1)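 Lung cancer cell lines in 1536-well plates were dosed by pin tool the day after seeding, either with one drug alone or with a fixed anchor-drug dose plus five library-drug doses (not always all listed) in √10 steps. After 5 days, cells were fixed and their nuclei stained in one step (final 0.05% Triton X-100, 1% formaldehyde, 1 ug/ml Hoechst), then counted on 4× images. Relative viability is the nuclei count in treated wells divided by that in vehicle wells. Values are medians of duplicate plates.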

Crenolanib + Trametinib = compound: CC1(COc2ccc3c(c2)ncn3-c2ccc3cccc(N4CCC(N)CC4)c3n2)COC1 [Crenolanib] + CC(=O)Nc1cccc(-n2c(=O)n(C3CC3)c(=O)c3c(Nc4ccc(I)cc4F)n(C)c(=O)c(C)c32)c1 [Trametinib] (partner 0.02 µM)
Summary of the method: as §1

Crenolanib + Phenformin = compound: CC1(COc2ccc3c(c2)ncn3-c2ccc3cccc(N4CCC(N)CC4)c3n2)COC1 [Crenolanib] + N=C(N)NC(=N)NCCc1ccccc1 [Phenformin] (partner 250 µM)
Summary of the method: as §1

Tivantinib + Navitoclax = compound: O=C1NC(=O)[C@@H](c2cn3c4c(cccc24)CCC3)[C@@H]1c1c[nH]c2ccccc12 [Tivantinib] + CC1(C)CCC(c2ccc(Cl)cc2)=C(CN2CCN(c3ccc(C(=O)NS(=O)(=O)c4ccc(N[C@H](CCN5CCOCC5)CSc5ccccc5)c(S(=O)(=O)C(F)(F)F)c4)cc3)CC2)C1 [Navitoclax] (partner 0.5 µM)
Summary of the method: as §1

| Cell Line | relative viability (Crenolanib + Decitabine; first compound 0.01 µM) | relative viability (Crenolanib + Decitabine; first compound 0.03162 µM) | relative viability (Crenolanib + Decitabine; first compound 0.1 µM) | relative viability (Crenolanib + Decitabine; first compound 0.3162 µM) | relative viability (Crenolanib + Decitabine; first compound 1 µM) | relative viability (Crenolanib + Trametinib; first compound 0.01 µM) | relative viability (Crenolanib + Trametinib; first compound 0.03162 µM) | relative viability (Crenolanib + Trametinib; first compound 0.1 µM) | relative viability (Crenolanib + Trametinib; first compound 0.3162 µM) | relative viability (Crenolanib + Trametinib; first compound 1 µM) | relative viability (Crenolanib + Phenformin; first compound 0.01 µM) | relative viability (Crenolanib + Phenformin; first compound 0.03162 µM) | relative viability (Crenolanib + Phenformin; first compound 0.1 µM) | relative viability (Crenolanib + Phenformin; first compound 0.3162 µM) | relative viability (Crenolanib + Phenformin; first compound 1 µM) | relative viability (Tivantinib + Navitoclax; first compound 0.01 µM) | relative viability (Tivantinib + Navitoclax; first compound 0.03162 µM) | relative viability (Tivantinib + Navitoclax; first compound 0.1 µM) | relative viability (Tivantinib + Navitoclax; first compound 0.3162 µM) |
| --- | --- | --- | --- | --- | --- | --- | --- | --- | --- | --- | --- | --- | --- | --- | --- | --- | --- | --- | --- |
| NCI-H1944 | 0.474 | 0.441 | 0.423 | 0.468 | 0.458 | 0.426 | 0.414 | 0.375 | 0.454 | 0.406 | 0.217 | 0.222 | 0.221 | 0.202 | 0.177 | 0.975 | 0.997 | 0.992 | 0.778 |
| NCI-H1793 | 0.649 | 0.495 | 0.537 | 0.549 | 0.475 | 0.349 | 0.333 | 0.363 | 0.472 | 0.458 | 0.453 | 0.38 | 0.376 | 0.288 | 0.364 | 0.43 | 0.417 | 0.481 |  |
| NCI-H596 | 1.09 | 0.991 | 0.933 | 1.05 | 1.03 | 0.823 | 0.842 | 0.753 | 0.729 | 0.75 | 0.691 | 0.806 | 0.72 | 0.733 | 0.737 | 1.07 | 1.02 | 0.948 | 0.73 |
| NCI-H520 | 0.54 | 0.492 | 0.451 | 0.575 | 0.481 | 0.818 | 0.714 | 0.644 | 0.678 | 0.686 | 0.605 | 0.574 | 0.75 | 0.584 | 0.616 | 1.12 | 1.17 | 0.995 | 1.1 |
| EKVX | 0.377 | 0.318 | 0.392 | 0.319 | 0.38 | 0.365 | 0.405 | 0.348 | 0.332 | 0.413 | 0.223 | 0.224 | 0.24 | 0.241 | 0.23 | 0.996 | 0.953 | 0.929 | 0.433 |
| H3255 | 0.674 | 0.629 | 0.588 | 0.587 | 0.652 | 0.646 | 0.612 | 0.639 | 0.754 | 0.627 | 0.432 | 0.326 | 0.386 | 0.321 | 0.35 | 0.559 | 0.564 | 0.508 |  |
| NCI-H1650 | 0.373 | 0.377 | 0.455 | 0.322 | 0.343 | 0.715 | 0.534 | 0.521 | 0.747 | 0.575 | 0.527 | 0.448 | 0.431 | 0.383 | 0.353 | 1.33 | 1.33 | 0.987 | 0.929 |
| NCI-H1395 | 0.754 | 0.674 | 0.739 | 0.695 | 0.669 | 1.05 | 1.03 | 0.976 | 1 | 1.14 | 0.448 | 0.455 | 0.497 | 0.469 | 0.436 | 1.48 | 1.17 | 1.19 | 1.58 |
| NCI-H2023 | 0.153 | 0.266 | 0.242 | 0.263 | 0.213 | 0.549 | 0.556 | 0.53 | 0.594 | 0.494 | 0.407 | 0.415 | 0.409 | 0.441 | 0.376 | 1.01 | 1 | 0.937 | 1 |
| NCI-H3122 | 0.433 | 0.424 | 0.468 | 0.546 | 0.478 | 0.233 | 0.21 | 0.224 | 0.23 | 0.318 | 0.383 | 0.344 | 0.368 | 0.313 | 0.318 | 1.02 | 0.971 | 0.974 | 1.01 |
| NCI-H1792 | 0.567 | 0.555 | 0.488 | 0.569 | 0.56 | 0.422 | 0.545 | 0.399 | 0.485 | 0.347 | 0.185 | 0.351 | 0.244 | 0.282 | 0.317 | 0.619 | 0.66 | 0.651 | 0.816 |
| HCC-827 | 0.332 | 0.329 | 0.311 | 0.308 | 0.348 | 0.595 | 0.529 | 0.505 | 0.473 | 0.6 | 0.446 | 0.401 | 0.427 | 0.445 | 0.403 | 1.04 | 1.05 | 0.926 | 1.02 |
| LU99A | 0.976 | 0.844 | 0.897 | 1.07 | 0.975 | 0.527 | 0.499 | 0.514 | 0.618 | 0.541 | 0.95 | 0.748 | 0.818 | 0.902 | 0.822 | 0.758 | 0.789 | 0.767 | 0.486 |
| LC-2-ad | 0.833 | 0.844 | 0.759 | 0.818 | 0.78 | 1.05 | 0.901 | 0.916 | 0.97 | 0.894 | 0.648 | 0.562 | 0.573 | 0.536 | 0.446 | 0.375 | 0.436 | 0.438 | 0.308 |
| NCI-H322M | 0.863 | 0.748 | 0.663 | 0.73 | 0.71 | 0.515 | 0.516 | 0.488 | 0.525 | 0.609 | 0.794 | 0.802 | 0.755 | 0.835 | 0.803 | 1.11 | 1.06 | 1.14 | 1.16 |
| HOP-62 | 0.222 | 0.19 | 0.29 | 0.205 | 0.234 | 0.43 | 0.372 | 0.368 | 0.379 | 0.37 | 0.616 | 0.711 | 0.722 | 0.815 | 0.7 | 0.9 | 0.859 | 1.07 | 1.02 |
| SW 1573 | 0.333 | 0.591 | 0.518 | 0.648 | 0.52 | 0.661 | 0.607 | 0.55 | 0.726 | 0.579 | 0.426 | 0.44 | 0.331 | 0.446 | 0.348 | 1.02 | 0.917 | 1.06 | 1.14 |

Source: the supplement of paper PMC10307832
